According to patent US6525001B1, “Substituted pyrimidine and pyridine herbicides” (Mid-American Commercialization Corporation, priority 1997, dated 2003):

Experiments:
Type in all cases: in vivo
[1] = tested on: ivyleaf morningglory (Ipomoea hederacea); assay: Test C; parameters: key: 0 was no effect; 100 was complete control; conditions: PREEMERGENCE
[2] = tested on: hairy beggarticks (Bidens pilosa); assay: Test C; parameters: key: 0 was no effect; 100 was complete control; conditions: PREEMERGENCE
corn (Zea mays) = assay: Test C; parameters: key: 0 was no effect; 100 was complete control; conditions: PREEMERGENCE
[3] = tested on: purple nutsedge (Cyperus rotundus); assay: Test C; parameters: key: 0 was no effect; 100 was complete control; conditions: PREEMERGENCE
[4] = tested on: surinam grass (Brachiaria decumbens); assay: Test C; parameters: key: 0 was no effect; 100 was complete control; conditions: PREEMERGENCE
[5] = tested on: sandbur (Cenchrus echinatus); assay: Test E pre-/postemergence/post directed; parameters: key: 0 is no injury; 100 is complete control; conditions: POSTEMERGENCE
From the text: (§1) Seeds, tubers, or plant parts of alexandergrass (Brachiaria plantaginea), annual bluegrass (Poa annua), arrowleaf sida (Sida rhombifolia), barnyardgrass (Echinochloa crus-galli), bermudagrass (Cynodon dactylon), citrus (Citrus sinensis), common chickweed (Stellaria media), common purslane (Portulaca oleracea), common ragweed (Ambrosia elatior), common groundsel (Senecio vulgaris), dallisgrass (Paspalum dilatatum), goosegrass (Eleusine indica), green foxtail (Setaria viridis), guineagrass (Panicum maximum), itchgrass (Rottboellia exaltata), johnson grass (Sorghum halepense), kochia (Kochia scoparia), large crabgrass (Digitaria sanguinalis), leafy spurge (Euphorbia esula), pitted morningglory (Ipomoea lacunosa), purple nutsedge (Cyperus rotundus), quackgrass (Agropyron repens), Russian thistle (Salsola kali), sandbur (Cenchrus echinatus), sourgrass (Trichachne insularis), Spanishneedles (Bidens bipinnata), sugarcane (Saccharum officinarum), surinam grass (Brachiaria decumbens) and tall mallow (Malva sylvestris) were planted into greenhouse pots of flats containing greenhouse planting medium. Plant species were grown grown in separate pots or individual compartments. Preemergence applications were made within one day of planting the seed or plant part. Postemergence applications were applied when the plants were in the two to four leaf stage (three to twenty cm).
(§2) Test chemicals were formulated in a non-phytotoxic solvent mixture which included a surfactant and applied preemergence to the soil surface, postemergence to the plants or as a post directed spray to plants and soil at the base of the target species. Untreated control plants and treated plants were placed in the greenhouse and visually evaluated for injury 13 to 21 days after herbicide application. Plant response ratings, summarized in Table E, are based on a 0 to 100 scale where 0 is no injury and 100 is complete control. A dash (−) response means no test result.

[6] = tested on: purple nutsedge (Cyperus rotundus); assay: Test E pre-/postemergence/post directed; parameters: key: 0 is no injury; 100 is complete control
From the text: as §1, §2

[7] = tested on: common groundsel (Senecio vulgaris); assay: Test E pre-/postemergence/post directed
Summary of the method: (§3)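 Injury scored visually on a 0–100 scale (100 = complete control) 13 to 21 days after treatment. Test chemicals, formulated with surfactant in non-phytotoxic solvent, were applied to soil within one day of planting, to plants at two to four leaves (three to twenty cm), or as directed spray at plant base.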

[8] = tested on: pitted morningglory (Ipomoea lacunosa); assay: Test E pre-/postemergence/post directed
Summary of the method: as §3

[9] = tested on: alexandergrass (Brachiaria plantaginea); assay: Test E pre-/postemergence/post directed
Summary of the method: as §3

[10] = tested on: surinam grass (Brachiaria decumbens); assay: Test E pre-/postemergence/post directed
Summary of the method: as §3

[11] = tested on: johnson grass (Sorghum halepense); assay: Test E pre-/postemergence/post directed
Summary of the method: as §3

[12] = tested on: wild poinsettia (Euphorbia heterophylla); assay: Test C; parameters: key: 0 was no effect; 100 was complete control; conditions: PREEMERGENCE
[13] = tested on: field bindweed (Convolvulus arvensis); assay: Test C; parameters: key: 0 was no effect; 100 was complete control; conditions: PREEMERGENCE

Structure (SMILES): Cc1cnc(-n2ccc(C(F)(F)F)n2)nc1Cc1cccc(C(F)(F)F)c1 [Example 2, 5-methyl-4-[[3-(trifluoromethyl)phenyl]methyl]-2-[3-(trifluoromethyl)-1H-pyrazol-1-yl]pyrimidine]
- Plant response rating, I. morningglory ([1]; Rate 35 g/ha): 0
- Plant response rating, I. morningglory ([1]; Rate 70 g/ha): 5
- Plant response rating, I. morningglory ([1]; Rate 140 g/ha): 5
- Plant response rating, H. beggarticks ([2]; Rate 35 g/ha): 40
- Plant response rating, H. beggarticks ([2]; Rate 70 g/ha): 40
- Plant response rating, H. beggarticks ([2]; Rate 140 g/ha): 100
- Plant response rating, Corn (corn (Zea mays); Rate 35 g/ha): 0
- Plant response rating, Corn (corn (Zea mays); Rate 70 g/ha): 0
- Plant response rating, Corn (corn (Zea mays); Rate 140 g/ha): 30
- Plant response rating, Purple nutsedge ([3]; Rate 35 g/ha): 0
- Plant response rating, Purple nutsedge ([3]; Rate 70 g/ha): 0
- Plant response rating, Purple nutsedge ([3]; Rate 140 g/ha): 0
- Plant response rating, Surinam grass ([4]; Rate 35 g/ha): 0
- Plant response rating, Surinam grass ([4]; Rate 70 g/ha): 10
- Plant response rating, Surinam grass ([4]; Rate 140 g/ha): 35
- Plant response rating, Sandbur ([5]; Rate 32 g/ha): 0
- Plant response rating, Purple nutsedge ([6]; POSTEMERGENCE, Rate 32 g/ha): 0
- Plant response rating, Purple nutsedge ([6]; POSTEMERGENCE, Rate 64 g/ha): 0
- Plant response rating, Purple nutsedge ([6]; POSTEMERGENCE, Rate 125 g/ha): 0
- Plant response rating, Purple nutsedge ([6]; POSTEMERGENCE, Rate 250 g/ha): 0
- Plant response rating, Purple nutsedge ([6]; POSTEMERGENCE, Rate 500 g/ha): 0
- Plant response rating, Purple nutsedge ([6]; PREEMERGENCE, Rate 32 g/ha): 0
- Plant response rating, Purple nutsedge ([6]; PREEMERGENCE, Rate 64 g/ha): 0
- Plant response rating, Purple nutsedge ([6]; PREEMERGENCE, Rate 125 g/ha): 0
- Plant response rating, Purple nutsedge ([6]; PREEMERGENCE, Rate 250 g/ha): 0
- Plant response rating, Purple nutsedge ([6]; PREEMERGENCE, Rate 500 g/ha): 0
- Plant response rating, Com. groundsel ([7]; POSTEMERGENCE, Rate 64 g/ha): 20
- Plant response rating, Com. groundsel ([7]; POSTEMERGENCE, Rate 125 g/ha): 20
- Plant response rating, Com. groundsel ([7]; POSTEMERGENCE, Rate 250 g/ha): 40
- Plant response rating, Com. groundsel ([7]; POSTEMERGENCE, Rate 500 g/ha): 75
- Plant response rating, P. morninglory ([8]; POSTEMERGENCE, Rate 32 g/ha): 80
- Plant response rating, P. morninglory ([8]; POSTEMERGENCE, Rate 64 g/ha): 80
- Plant response rating, P. morninglory ([8]; POSTEMERGENCE, Rate 125 g/ha): 80
- Plant response rating, P. morninglory ([8]; POSTEMERGENCE, Rate 250 g/ha): 90
- Plant response rating, P. morninglory ([8]; POSTEMERGENCE, Rate 500 g/ha): 90
- Plant response rating, Alexandergrass ([9]; POSTEMERGENCE, Rate 32 g/ha): 20
- Plant response rating, Alexandergrass ([9]; POSTEMERGENCE, Rate 64 g/ha): 30
- Plant response rating, Alexandergrass ([9]; POSTEMERGENCE, Rate 125 g/ha): 30
- Plant response rating, Alexandergrass ([9]; POSTEMERGENCE, Rate 250 g/ha): 80
- Plant response rating, Alexandergrass ([9]; POSTEMERGENCE, Rate 500 g/ha): 95
- Plant response rating, Alexandergrass ([9]; PREEMERGENCE, Rate 32 g/ha): 50
- Plant response rating, Alexandergrass ([9]; PREEMERGENCE, Rate 64 g/ha): 90
- Plant response rating, Surinam grass ([10]; POSTEMERGENCE, Rate 32 g/ha): 35
- Plant response rating, Surinam grass ([10]; POSTEMERGENCE, Rate 64 g/ha): 50
- Plant response rating, Surinam grass ([10]; POSTEMERGENCE, Rate 125 g/ha): 50
- Plant response rating, Surinam grass ([10]; POSTEMERGENCE, Rate 250 g/ha): 70
- Plant response rating, Surinam grass ([10]; POSTEMERGENCE, Rate 500 g/ha): 80
- Plant response rating, Surinam grass ([10]; PREEMERGENCE, Rate 32 g/ha): 50
- Plant response rating, Surinam grass ([10]; PREEMERGENCE, Rate 64 g/ha): 90
- Plant response rating, Johnsongrass ([11]; POSTEMERGENCE, Rate 32 g/ha): 10
- Plant response rating, Johnsongrass ([11]; POSTEMERGENCE, Rate 64 g/ha): 60
- Plant response rating, Johnsongrass ([11]; POSTEMERGENCE, Rate 125 g/ha): 60
- Plant response rating, Johnsongrass ([11]; POSTEMERGENCE, Rate 250 g/ha): 80
- Plant response rating, Johnsongrass ([11]; POSTEMERGENCE, Rate 500 g/ha): 95
- Plant response rating, Johnsongrass ([11]; PREEMERGENCE, Rate 32 g/ha): 65
- Plant response rating, Johnsongrass ([11]; PREEMERGENCE, Rate 64 g/ha): 98
- Plant response rating, Johnsongrass ([11]; PREEMERGENCE, Rate 125 g/ha): 85
- Plant response rating, Wild poinsettia ([12]; Rate 35 g/ha): 0
- Plant response rating, Wild poinsettia ([12]; Rate 70 g/ha): 5
- Plant response rating, Wild poinsettia ([12]; Rate 140 g/ha): 45
- Plant response rating, Field bindweed ([13]; Rate 35 g/ha): 0
- Plant response rating, Field bindweed ([13]; Rate 70 g/ha): 30
- Plant response rating, Field bindweed ([13]; Rate 140 g/ha): 100

Structure (SMILES): Cc1cnc(-c2ccc(C(F)(F)F)cc2)nc1Cc1cccc(OC(F)(F)F)c1 [Compound 15]
- Plant response rating, I. morningglory ([1]; Rate 35 g/ha): 15
- Plant response rating, I. morningglory ([1]; Rate 70 g/ha): 20
- Plant response rating, I. morningglory ([1]; Rate 140 g/ha): 65
- Plant response rating, Corn (corn (Zea mays); Rate 35 g/ha): 0
- Plant response rating, Corn (corn (Zea mays); Rate 70 g/ha): 5
- Plant response rating, Corn (corn (Zea mays); Rate 140 g/ha): 10
- Plant response rating, Purple nutsedge ([3]; Rate 35 g/ha): 0
- Plant response rating, Purple nutsedge ([3]; Rate 70 g/ha): 0
- Plant response rating, Purple nutsedge ([3]; Rate 140 g/ha): 0
- Plant response rating, Surinam grass ([4]; Rate 35 g/ha): 20
- Plant response rating, Surinam grass ([4]; Rate 70 g/ha): 50
- Plant response rating, Surinam grass ([4]; Rate 140 g/ha): 80
- Plant response rating, Sandbur ([5]; Rate 125 g/ha): 0
- Plant response rating, Sandbur ([5]; Rate 250 g/ha): 0
- Plant response rating, Purple nutsedge ([6]; POSTEMERGENCE, Rate 125 g/ha): 0
- Plant response rating, Purple nutsedge ([6]; POSTEMERGENCE, Rate 250 g/ha): 0
- Plant response rating, Purple nutsedge ([6]; PREEMERGENCE, Rate 32 g/ha): 0
- Plant response rating, Purple nutsedge ([6]; PREEMERGENCE, Rate 64 g/ha): 0
- Plant response rating, Purple nutsedge ([6]; PREEMERGENCE, Rate 125 g/ha): 0
- Plant response rating, Purple nutsedge ([6]; PREEMERGENCE, Rate 250 g/ha): 0
- Plant response rating, Com. groundsel ([7]; POSTEMERGENCE, Rate 250 g/ha): 20
- Plant response rating, Com. groundsel ([7]; PREEMERGENCE, Rate 64 g/ha): 98
- Plant response rating, P. morninglory ([8]; POSTEMERGENCE, Rate 125 g/ha): 5
- Plant response rating, P. morninglory ([8]; POSTEMERGENCE, Rate 250 g/ha): 5
- Plant response rating, P. morninglory ([8]; PREEMERGENCE, Rate 32 g/ha): 5
- Plant response rating, P. morninglory ([8]; PREEMERGENCE, Rate 64 g/ha): 40
- Plant response rating, P. morninglory ([8]; PREEMERGENCE, Rate 125 g/ha): 75
- Plant response rating, P. morninglory ([8]; PREEMERGENCE, Rate 250 g/ha): 90
- Plant response rating, Alexandergrass ([9]; POSTEMERGENCE, Rate 125 g/ha): 10
- Plant response rating, Alexandergrass ([9]; POSTEMERGENCE, Rate 250 g/ha): 20
- Plant response rating, Alexandergrass ([9]; PREEMERGENCE, Rate 32 g/ha): 75
- Plant response rating, Alexandergrass ([9]; PREEMERGENCE, Rate 64 g/ha): 80
- Plant response rating, Surinam grass ([10]; POSTEMERGENCE, Rate 125 g/ha): 35
- Plant response rating, Surinam grass ([10]; POSTEMERGENCE, Rate 250 g/ha): 40
- Plant response rating, Surinam grass ([10]; PREEMERGENCE, Rate 32 g/ha): 20
- Plant response rating, Surinam grass ([10]; PREEMERGENCE, Rate 64 g/ha): 20
- Plant response rating, Johnsongrass ([11]; POSTEMERGENCE, Rate 125 g/ha): 98
- Plant response rating, Johnsongrass ([11]; PREEMERGENCE, Rate 32 g/ha): 60
- Plant response rating, Johnsongrass ([11]; PREEMERGENCE, Rate 64 g/ha): 90
- Plant response rating, Johnsongrass ([11]; PREEMERGENCE, Rate 125 g/ha): 90
- Plant response rating, Wild poinsettia ([12]; Rate 35 g/ha): 0
- Plant response rating, Wild poinsettia ([12]; Rate 70 g/ha): 0
- Plant response rating, Wild poinsettia ([12]; Rate 140 g/ha): 20
- Plant response rating, Field bindweed ([13]; Rate 35 g/ha): 65
- Plant response rating, Field bindweed ([13]; Rate 70 g/ha): 100
- Plant response rating, Field bindweed ([13]; Rate 140 g/ha): 100
